From patent publication US20260217697A1, “COMPOUNDS COMPRISING HETEROARYL RINGS AND COMPOSITIONS AND METHODS THEREOF” (lonGen Therapeutics Co., Ltd., priority 2022, published 2026)

Molecular target: T1, hTRPV3 (Homo sapiens, UniProt Q8NET8)
T1 construct: The commercially available plasmid with the full-length cDNA of hTRPV3 (791 aa) (NM_001258205.2); host or cells: HEK293T
T1 sequence (Q8NET8 1-791 isoform Q8NET8-2): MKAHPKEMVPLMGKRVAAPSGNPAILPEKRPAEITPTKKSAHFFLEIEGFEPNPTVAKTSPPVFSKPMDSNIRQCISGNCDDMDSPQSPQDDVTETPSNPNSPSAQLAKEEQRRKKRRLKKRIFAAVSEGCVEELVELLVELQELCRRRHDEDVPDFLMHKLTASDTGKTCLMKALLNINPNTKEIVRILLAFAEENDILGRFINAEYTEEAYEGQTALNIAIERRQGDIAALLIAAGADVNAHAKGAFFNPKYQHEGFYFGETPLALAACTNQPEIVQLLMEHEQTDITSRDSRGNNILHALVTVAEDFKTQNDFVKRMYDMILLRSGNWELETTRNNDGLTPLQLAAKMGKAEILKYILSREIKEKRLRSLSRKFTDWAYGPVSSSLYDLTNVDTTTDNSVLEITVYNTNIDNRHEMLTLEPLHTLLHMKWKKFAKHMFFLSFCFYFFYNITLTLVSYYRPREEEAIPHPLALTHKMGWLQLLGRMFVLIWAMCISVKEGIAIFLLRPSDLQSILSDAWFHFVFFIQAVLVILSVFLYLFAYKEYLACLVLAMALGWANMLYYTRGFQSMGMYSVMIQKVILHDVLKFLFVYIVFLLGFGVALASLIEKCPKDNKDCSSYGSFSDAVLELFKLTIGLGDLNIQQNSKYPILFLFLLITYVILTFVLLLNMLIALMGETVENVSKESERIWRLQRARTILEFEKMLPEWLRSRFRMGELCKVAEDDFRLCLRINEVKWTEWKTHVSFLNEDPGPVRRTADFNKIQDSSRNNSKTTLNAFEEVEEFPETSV
Assay: Whole-cell patch-clamp recording of hTRPV3 current in transfected HEK293T cells (2-APB induced)
Assay type: cell-based
Details: current induced by 300 μM 2-APB, compounds tested up to 10 μM, room temperature
Procedure, shortened: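 IC50 comes from Hill fits, 0–100% bounds, of percent block of 2-APB-induced current, with compounds perfused at up to 10 μM. Currents elicited at +80/−80 mV (400-ms steps, 2-s interval, 0 mV hold), room temperature, symmetric NaCl/EDTA/HEPES pH 7.4 solutions. Cells: hTRPV3-transfected HEK293T, used 18 h after transfection.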

| IC50 [nM] | SMILES |
| --- | --- |
| 1000 to 10000 | COc1ncnc(OC)c1C(=O)Nc1nc2c(s1)C(C)(CCCC(=O)O)Oc1cc(C(F)(F)F)ccc1-2 (stereo not shown) [compound 114, 4-(2-(4,6-dimethoxypyrimidine-5-carboxamido)-4-methyl-7-(trifluoromethyl)-4H-chromeno[4,3-d]thiazol-4-yl) butanoic acid] |
| 1000 to 10000 | CCOC(=O)[C@H]1CC[C@@]2(CC1)Oc1cc(C(C)C)ccc1-c1nc(NC(=O)c3c(OC)ncnc3OC)sc12 [compound 130] |
| < 100 | COc1ncnc(OC)c1C(=O)Nc1nc2c(s1)C1(CCN(C(=O)OC(C)(C)C)CC1)Oc1cc(C(F)(F)F)ccc1-2 [compound 27, tert-butyl 2-(4,6-dimethoxypyrimidine-5-carboxamido)-7-(trifluoromethyl)spiro[chromeno[4,3-d]thiazole-4,4′-piperidine]-1′-carboxylate] |
| 100 to 1000 | COc1ncnc(OC)c1C(=O)Nc1nc2c(s1)C(CCc1ccccc1)Oc1cc(C(F)(F)F)ccc1-2 (stereo not shown) [compound 29, 4,6-dimethoxy-N-(4-phenethyl-7-(trifluoromethyl)-4H-chromeno[4,3-d]thiazol-2-yl)pyrimidine-5-carboxamide] |
| ≥ 10000 | COc1ncnc(OC)c1C(=O)Nc1nc2c(s1)C1(COC1)Oc1cc(C(C)(C)O)ccc1-2 [compound 139, N-(7-(2-hydroxypropan-2-yl)spiro[chromeno[4,3-d]thiazole-4,3′-oxetan]-2-yl)-4,6-dimethoxypyrimidine-5-carboxamide] |
| 100 to 1000 | COc1ncnc(OC)c1C(=O)Nc1nc2c(s1)C1(CCOC1)Oc1cc(C(F)(F)F)ccc1-2 (stereo not shown) [compound 21, 4,6-dimethoxy-N-(7-(trifluoromethyl)-4′,5′-dihydro-2′H-spiro[chromeno[4,3-d]thiazole-4,3′-furan]-2-yl)pyrimidine-5-carboxamide] |
| 100 to 1000 | COc1ncnc(OC)c1C(=O)Nc1nc2c(s1)C1(CCCCCC1)Oc1cc(C(F)(F)F)ccc1-2 [compound 26, 4,6-dimethoxy-N-(7-(trifluoromethyl)spiro[chromeno[4,3-d]thiazole-4,1′-cycloheptan]-2-yl)pyrimidine-5-carboxamide] |
| 1000 to 10000 | COc1ncnc(OCCN(C)C)c1C(=O)Nc1nc2c(s1)C1(COC1)Oc1cc(C(C)C)ccc1-2 [compound 147, 4-(2-(dimethylamino)ethoxy)-N-(7-isopropylspiro[chromeno[4,3-d]thiazole-4,3′-oxetan]-2-yl)-6-methoxypyrimidine-5-carboxamide] |
| 1000 to 10000 | C=CCc1ncnc(OC)c1C(=O)Nc1nc2c(s1)C(CC)(CC)Oc1cc(C(F)(F)F)ccc1-2 [compound 119, 4-allyl-N-(4,4-diethyl-7-(trifluoromethyl)-4H-chromeno[4,3-d]thiazol-2-yl)-6-methoxypyrimidine-5-carboxamide] |
| 100 to 1000 | COc1ncnc(OC)c1C(=O)Nc1nc2c(s1)C1(Oc3cc(C(F)(F)F)ccc3-2)C2CC3CC(C2)CC1C3 (stereo not shown) [compound 20, 4,6-dimethoxy-N-(7′-(trifluoromethyl)spiro[adamantane-2,4′-chromeno[4,3-d]thiazol]-2′-yl)pyrimidine-5-carboxamide] |
| 100 to 1000 | COc1ncnc(OC)c1C(=O)Nc1nc2c(s1)C1(CN(CCO)C1)Oc1cc(C(F)(F)F)ccc1-2 [compound 166, N-(1-(2-hydroxyethyl)-7′-(trifluoromethyl)spiro[azetidine-3,4′-chromeno[4,3-d]thiazol]-2′-yl)-4,6-dimethoxypyrimidine-5-carboxamide] |
| < 100 | COC(=O)CN1CC2(C1)Oc1cc(C(F)(F)F)ccc1-c1nc(NC(=O)c3c(OC)ncnc3OC)sc12 [compound 163] |
| 100 to 1000 | CCC1(CC)Oc2nc(C(F)(F)F)ccc2-c2nc(NC(=O)c3c(OC)ncnc3OC)sc21 [compound 60, N-(4,4-diethyl-7-(trifluoromethyl)-4H-thiazolo[4′,5′: 4,5]pyrano[2,3-b]pyridin-2-yl)-4,6-dimethoxypyrimidine-5-carboxamide] |
